In patent publication US20120164104A1, “Composition and Methods of Treating Viral Infections and Viral Induced Tumors” (Chimerix, Inc., priority 2009, published 2012):
Blank lines part the entries; values can stand above or below the compound they belong to.

Assays:
[1] = test system: HT-29; test: Cell proliferation assay (MTS or SRB), HT-29; format: cell-based, human; conditions: HT-29, Colon, 3 days; read-out: IC50 (cell growth inhibition)
Protocol: (§1) In vitro cell proliferation assays were performed using a 96-well plate based MTSassay (CellTiter 96° AqueousOne Solution Cell Proliferation Assay, Promega) or SRB (Sulforhodamine-B) assay (1-3). Briefly, cells were plated in 100 μl medium on day 0 in 96-well microtiter plates (Falcon #3072). On day 1, 10 μl of serial dilutions of each compound (Nine 1:2 dilutions with a starting concentration of 100 μM; in some cases, a starting concentration of 400 μM (CMX001 or Cidofovir) or 1 μM (some standard agents)) were added in triplicates to the plates. For standard agents using DMSO as solvent, serial dilutions of DMSO with a starting concentration of 0.5% were also included as a vehicle control.
(§2) After incubation for 3 days at 37° C. in a humidified incubator, viable cells were measured either by MTS or SRB assay. For MTS assay, 20 μl of a 20:1 mixture of (3-(4,5-dimethylthiazol-2-yl)-5-(3-carboxymethoxyphenyl)-2-(4-sulfophenyl)-2H-tetrazolium, inner salt (MTS, 2 mg/ml) and an electron coupling reagent, phenazine methosulfate (PMS, 0.92 mg/ml in DPBS), was added to each well and incubated for 3 hours at 37° C. Absorbance was measured using a BioTek Synergy™ HT Multiple Detection microplate reader at 490 nm. For SRB assay, cells were fixed in situ with 50 μL of cold trichloroacetic acid (TCA, final concentration at 10% w/v) for 60 minutes. Cells were then washed 5 times with H2O and air-dried.
(§3) Next, cells were stained with 20 μL of 0.2% SRB in 1% acetic acid and incubated at room temperature for 30 minutes and unbound SRB was removed by washing 5 times with 1% acetic acid and air-dried. Finally, bound SRB stain was solubilized in 50 μL of 50 μM Tris buffer before taking an optical density measurement at 570 nm using the BioTek microplate reader. The growth inhibition data were expressed as the percentage of cell survival calculated from the background corrected absorbance. The surviving fraction of cells was determined by dividing the mean absorbance values of the test agent-treated samples by the mean absorbance values of untreated control. […]

[2] = test system: HCT-116; test: Cell proliferation assay (MTS or SRB), HCT-116; format: cell-based, human; conditions: HCT-116, Colon, 3 days; read-out: IC50 (cell growth inhibition)
Protocol: as §1, §2, §3

[3] = test system: DU 145; test: Cell proliferation assay (MTS or SRB), DU 145; format: cell-based; conditions: Homo sapiens, 72 h; DU 145, Prostate, 3 days; read-out: IC50 (cell growth inhibition)
Protocol: as §1, §2, §3

[4] = test system: PC-3; test: Cell proliferation assay (MTS or SRB), PC-3; format: cell-based; conditions: Homo sapiens, 72 h; PC-3, Prostate, 3 days; read-out: IC50 (cell growth inhibition)
Protocol: as §1, §2, §3

[5] = test system: MDA-231; test: Cell proliferation assay (MTS or SRB), MDA-231; format: cell-based; conditions: Homo sapiens, MDA-MB-231, 72 h; MDA-231, Breast, 3 days; read-out: IC50 (cell growth inhibition)
Protocol: as §1, §2, §3

[6] = test system: MCF-7; test: Cell proliferation assay (MTS or SRB), MCF-7; format: cell-based; conditions: Homo sapiens, MCF7, 72 h; MCF-7, Breast, 3 days; read-out: IC50 (cell growth inhibition)
Protocol: as §1, §2, §3

[7] = test system: H460; test: Cell proliferation assay (MTS or SRB), H460; format: cell-based; conditions: Homo sapiens, NCI-H460, 72 h; H460, Lung, 3 days; read-out: IC50 (cell growth inhibition)
Protocol: as §1, §2, §3

[8] = test system: A549; test: Cell proliferation assay (MTS or SRB), A549; format: cell-based; conditions: Homo sapiens, 72 h; A549, Lung, 3 days; read-out: IC50 (cell growth inhibition)
Protocol: as §1, §2, §3

[9] = test system: A2058; test: Cell proliferation assay (MTS or SRB), A2058; format: cell-based; conditions: Homo sapiens, 72 h; A2058, Skin (melanoma), 3 days; read-out: IC50 (cell growth inhibition)
Protocol: as §1, §2
(§4) Next, cells were stained with 20 μL of 0.2% SRB in 1% acetic acid and incubated at room temperature for 30 minutes and unbound SRB was removed by washing 5 times with 1% acetic acid and air-dried. Finally, bound SRB stain was solubilized in 50 μL of 50 μM Tris buffer before taking an optical density measurement at 570 nm using the BioTek microplate reader. The growth inhibition data were expressed as the percentage of cell survival calculated from the background corrected absorbance. The surviving fraction of cells was determined by dividing the mean absorbance values of the test agent-treated samples by the mean absorbance values of untreated control.
(§5) Raw data were acquired using a BioTek Synergy™ HT Multiple Detection microplate reader and imported into Microsoft Excel for analysis. The average signal of each treatment was calculated from the triplicates after subtracting the blank signals. The percentage survival values were calculated using the following formula: % survival=(average signal of the drug treatment/average signal of untreated controls)×100. The data were finally imported into the Prism 4 software (GraphPad Software, San Diego, Calif.) to generate the dose-activity curves using non-linear regression curve fit and to calculate the IC50 values.

[10] = test system: SK-MEL-2; test: Cell proliferation assay (MTS or SRB), SK-MEL-2; format: cell-based; conditions: Homo sapiens, 72 h; SK-MEL-2, Skin (melanoma), 3 days; read-out: IC50 (cell growth inhibition)
Protocol: as §1, §2, §4, §5

[11] = test system: C33A; test: Cell proliferation assay (MTS or SRB), C33A; format: cell-based, human; conditions: Cervical, 3 days, read-out: IC50 (cell growth inhibition)
Protocol: as §1, §2, §3

[12] = test system: SiHa; test: Cell proliferation assay (MTS or SRB), SiHa; format: cell-based, human; conditions: Cervical, 3 days, read-out: IC50 (cell growth inhibition)
Protocol: as §1, §2, §3

[13] = test system: SK-OV-3; test: Cell proliferation assay (MTS or SRB), SK-OV-3; format: cell-based, human; conditions: SK-OV-3, Ovarian, 3 days; read-out: IC50 (cell growth inhibition)
Protocol: as §1, §2, §3

[14] = test system: OVCAR-3; test: Cell proliferation assay (MTS or SRB), OVCAR-3; format: cell-based, human; conditions: OVCAR-3, Ovarian, 3 days; read-out: IC50 (cell growth inhibition)
Protocol: as §1, §2, §3

[15] = test system: BK virus; test: Antiviral activity against BK virus in RPTEC cells (viral DNA by qPCR, 5 days); format: cell-based; conditions: for EC50: Betapolyomavirus hominis, RPTEC, RPTEC cells
Protocol: In order to test the activity of CMX001 to inhibit replication of BK virus, stocks of BK virus were prepared in HFF cells and dilutions of the virus stocks were used to infect primary human renal tubular epithelial cells (RPTECs). CMX001 were then added to the wells containing the infected cells and the plates were incubated for 5 days. Total DNA was prepared from the plates and viral DNA was quantified by qPCR.

[16] = test system: PANC-1; test: Cell proliferation assay (MTS or SRB), PANC-1; format: cell-based; conditions: Homo sapiens, 72 h; PANC-1, Pancreatic, 3 days; read-out: IC50 (cell growth inhibition)
Protocol: as §1, §2, §3

[17] = test system: MIA PaCa-2; test: Cell proliferation assay (MTS or SRB), MIA PaCa-2; format: cell-based; conditions: Homo sapiens, 72 h; MIA PaCa-2, Pancreatic, 3 days; read-out: IC50 (cell growth inhibition)
Protocol: as §1, §2, §3

[18] = test system: Caki-1; test: Cell proliferation assay (MTS or SRB), Caki-1; format: cell-based; conditions: Homo sapiens, 72 h; Caki-1, Kidney, 3 days; read-out: IC50 (cell growth inhibition)
Protocol: as §1, §2, §3

[19] = test system: Caki-2; test: Cell proliferation assay (MTS or SRB), Caki-2; format: cell-based; conditions: Homo sapiens, 72 h; Caki-2, Kidney, 3 days; read-out: IC50 (cell growth inhibition)
Protocol: as §1, §2, §3

[20] = test system: SCaBER; test: Cell proliferation assay (MTS or SRB), SCaBER; format: cell-based; conditions: Homo sapiens, 72 h, Bladder, 3 days, read-out: IC50 (cell growth inhibition)
Protocol: as §1, §2, §3

[21] = test system: SW 780; test: Cell proliferation assay (MTS or SRB), SW 780; format: cell-based; conditions: Homo sapiens, SW780, 72 h; SW 780, Bladder, 3 days; read-out: IC50 (cell growth inhibition)
Protocol: as §1, §2, §3

[22] = test system: SK-HEP-1; test: Cell proliferation assay (MTS or SRB), SK-HEP-1; format: cell-based; conditions: Homo sapiens, SK-HEP1, 72 h; SK-HEP-1, Liver, 3 days; read-out: IC50 (cell growth inhibition)
Protocol: as §1, §2, §3

[23] = test system: Hep G2; test: Cell proliferation assay (MTS or SRB), Hep G2; format: cell-based; conditions: Homo sapiens, HepG2, 72 h; Hep G2, Liver, 3 days; read-out: IC50 (cell growth inhibition)
Protocol: as §1, §2, §3

Structure (SMILES): O=C1[O][Pt]2([NH][C@@H]3CCCC[C@H]3[NH]2)[O]C1=O [Oxaliplatin]
IC50 [1]: 360 nM
IC50 [2]: 480 nM

Structure (SMILES): N.N.[Cl][Pt][Cl] [Cisplatin]
IC50 [11]: 1200 nM
IC50 [12]: 15.5 µM
IC50 [13]: 9.2 µM
IC50 [14]: 4.9 µM

Structure (SMILES): Nc1nc(O)c2ncn(COC(CO)CO)c2n1 [ganciclovir]
EC50 ([15]; virus dilution 1:10): 89 µM
EC50 ([15]; virus dilution 1:50): > 100 µM
EC50 ([15]; virus dilution 1:100): 70.8 µM
activity against BK virus replication ([15]; RPTECs, in words): essentially inactive

Further lines, with some results ahead:

IC50 [4]: 1.1 nM
IC50 [6]: 15 nM
IC50 [7]: 4.2 nM
IC50 [8]: 1.4 nM
Structure (SMILES): CC(=O)O[C@@]12CO[C@@H]1C[C@H](O)[C@@]1(C)C(=O)[C@H](O)C3=C(C)[C@@H](OC(=O)[C@H](O)[C@@H](NC(=O)OC(C)(C)C)c4ccccc4)C[C@@](O)([C@@H](OC(=O)c4ccccc4)[C@H]21)C3(C)C [Docetaxel]
IC50 [3]: 2.4 nM
IC50 [5]: 2.8 nM

IC50 [10]: > 100 µM
Structure (SMILES): CN(C)/N=N/c1[nH]cnc1C(N)=O [DTIC, Dacarbazine]
IC50 [9]: > 100 µM

IC50 [16]: 130 nM
IC50 [17]: 29 nM
Structure (SMILES): Nc1ccn([C@@H]2O[C@H](CO)[C@@H](O)C2(F)F)c(=O)n1 [Gemcitabine]

IC50 [10]: > 100 µM
Structure (SMILES): Cn1nnc2c(C(N)=O)ncn2c1=O [temozolomide]
IC50 [9]: > 100 µM

IC50 [22]: 29 nM
Structure (SMILES): COc1cccc2c1C(=O)c1c(O)c3c(c(O)c1C2=O)C[C@@](O)(C(=O)CO)C[C@@H]3O[C@H]1C[C@H](N)[C@H](O)[C@H](C)O1 [Doxorubicin]
IC50 [18]: 74 nM
IC50 [19]: 1230 nM
IC50 [20]: 60 nM
IC50 [21]: 160 nM
IC50 [23]: 50 nM
